Drawing on patent publication US8003649B2 (AstraZeneca AB, priority 2007, dated 2011), this text covers DC50 and IC50 for 16 molecules.

The first test deals with T1, Androgen Receptor (AR) (Homo sapiens, UniProt P10275, T878A).
T1 construct: cell based immuno-fluorescence assay using the LNCaP prostate epithelial cell line; endogenous in cells; host or cells: LNCaP clone FGC (ATCC CRL-1740)
T1 sequence (P10275 1-920 T878A): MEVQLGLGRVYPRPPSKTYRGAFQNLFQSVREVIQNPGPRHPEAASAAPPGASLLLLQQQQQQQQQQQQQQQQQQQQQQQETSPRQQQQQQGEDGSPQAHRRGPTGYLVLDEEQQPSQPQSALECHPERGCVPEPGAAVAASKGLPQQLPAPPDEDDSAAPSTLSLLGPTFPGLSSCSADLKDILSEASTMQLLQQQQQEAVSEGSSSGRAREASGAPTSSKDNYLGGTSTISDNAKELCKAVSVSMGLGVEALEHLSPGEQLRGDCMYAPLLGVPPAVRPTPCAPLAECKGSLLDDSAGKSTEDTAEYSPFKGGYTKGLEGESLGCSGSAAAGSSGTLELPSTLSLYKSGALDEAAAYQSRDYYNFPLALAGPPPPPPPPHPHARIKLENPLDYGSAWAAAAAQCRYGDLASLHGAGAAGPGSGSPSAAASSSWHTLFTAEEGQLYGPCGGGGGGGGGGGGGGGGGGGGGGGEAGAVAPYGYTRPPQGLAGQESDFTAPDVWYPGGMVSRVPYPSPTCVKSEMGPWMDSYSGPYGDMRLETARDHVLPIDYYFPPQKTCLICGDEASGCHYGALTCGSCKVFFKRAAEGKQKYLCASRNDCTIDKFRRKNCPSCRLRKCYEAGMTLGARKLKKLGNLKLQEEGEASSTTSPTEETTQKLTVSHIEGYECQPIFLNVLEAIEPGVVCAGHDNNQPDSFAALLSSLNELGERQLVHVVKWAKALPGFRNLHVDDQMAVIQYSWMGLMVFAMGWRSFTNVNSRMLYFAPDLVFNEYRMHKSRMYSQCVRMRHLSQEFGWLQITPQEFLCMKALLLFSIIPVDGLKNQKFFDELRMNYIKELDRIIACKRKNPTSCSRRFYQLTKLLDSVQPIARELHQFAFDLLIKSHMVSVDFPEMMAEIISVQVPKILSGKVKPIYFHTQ
As to the kind of experiment: LNCaP Androgen Receptor Down-regulation Cell Assay (immunofluorescence end point). Format: cell-based. The note with it: LNCaP prostate carcinoma cells, compound incubation 20-22 hours, 50% reduction of the AR signal; read-out: Androgen Receptor Down-regulation Assay (a) IC50/μM. The method, boiled down: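 AR loss reported as IC50 from curve fits of fluorescence dose-response data, with AR immunostained and read by laser-scanning cytometry. Compound exposure was 20-22 h at 37° C in LNCaP cells grown in 5% charcoal-stripped FBS and plated overnight beforehand.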
In the case of `FC(F)(F)Cc1nnc2ccc(N3CCN(C(c4ccccc4)c4ccccc4)CC3)nn12` [Example 4, 6-(4-benzhydrylpiperazin-1-yl)-3-(2,2,2-trifluoroethyl)-[1,2,4]triazolo[4,3-b]pyridazine], the DC50 turned out to be 2.5 µM. With `CS(=O)(=O)c1ccc(CN2CCCN(c3ccc4nnc(C(F)(F)F)n4n3)CC2)cc1` [Example 166, 6-[4-[(4-methylsulfonylphenyl)methyl]-1,4-diazepan-1-yl]-3-(trifluoromethyl)-[1,2,4]triazolo[4,3-b]pyridazine], the DC50 was 0.93 µM. Same read-out and setting: under `FC(F)(F)c1ccccc1CN1CCCN(c2ccc3nnc(C(F)(F)F)n3n2)CC1` [Example 174, 3-(trifluoromethyl)-6-[4-[[2-(trifluoromethyl)phenyl]methyl]-1,4-diazepan-1-yl]-[1,2,4]triazolo[4,3-b]pyridazine] stands 0.94 µM; under `N#Cc1cnn(CCOc2ccc(N3CCN(c4ccc5nnc(C(F)(F)F)n5n4)CC3)cc2)c1` [Example 848, 1-[2-[4-[4-[3-(trifluoromethyl)[1,2,4]triazolo[4,3-b]pyridazin-6-yl]piperazin-1-yl]phenoxy]ethyl]-1H-pyrazole-4-carbonitrile], 3.5 µM. On the same count and under the same terms, next, `FC(F)(F)c1nnc2ccc(N3CCC(c4ccc(OCCn5cccn5)cc4)CC3)nn12` [Example 849, 6-[4-[4-[2-(1H-pyrazol-1-yl)ethoxy]phenyl]piperidin-1-yl]-3-(trifluoromethyl)[1,2,4]triazolo[4,3-b]pyridazine]: 0.68 µM. On the same count and under the same terms, next, `N#Cc1cnn(CCOc2ccc(C3CCN(c4ccc5nnc(C(F)(F)F)n5n4)CC3)cc2)c1` [Example 850]: 0.56 µM; `COCCN(C)C(=O)COc1ccc(C2CCN(c3ccc4nnc(C(F)(F)F)n4n3)CC2)cc1` [Example 851, N-(2-methoxyethyl)-N-methyl-2-[4-[1-[3-(trifluoromethyl)[1,2,4]triazolo[4,3-b]pyridazin-6-yl]piperidin-4-yl]phenoxy]acetamide]: 0.92 µM. For the molecule `CC(=O)N1CCN(CCOc2ccc(C3CCN(c4ccc5nnc(C(F)(F)F)n5n4)CC3)cc2)CC1` [Example 852, 6-[4-[4-[2-(4-acetylpiperazin-1-yl)ethoxy]phenyl]piperidin-1-yl]-3-(trifluoromethyl)[1,2,4]triazolo[4,3-b]pyridazine], the DC50 was 0.29 µM. The same measure, in the same setting: next, `CS(=O)(=O)N1CCN(CCCOc2ccc(C3CCN(c4ccc5nnc(C(F)(F)F)n5n4)CC3)cc2)CC1` [Example 855, 6-[4-[4-[3-[4-(methylsulfonyl)piperazin-1-yl]propoxy]phenyl]piperidin-1-yl]-3-(trifluoromethyl)[1,2,4]triazolo[4,3-b]pyridazine]: 0.44 µM. Consider `Cn1nccc1CCOc1ccc(N2CCN(c3ccc4nnc(C(F)F)n4n3)CC2)cc1` [Example 856, 3-(difluoromethyl)-6-[4-[4-[2-(1-methyl-1H-pyrazol-5-yl]ethoxy]phenyl]piperazin-1-yl)[1,2,4]triazolo[4,3-b]pyridazine], for which the DC50 amounted to 2.2 µM.

With `N#Cc1ccc(S(=O)(=O)N2CCN(c3ccc4nnc(C(F)(F)F)n4n3)CC2)cc1` [Example 857, 4-[4-[3-(trifluoromethyl)-[1,2,4]triazolo[3,4-f]pyridazin-6-yl]piperazin-1-yl]sulfonylbenzonitrile], the DC50 is > 33 µM. Same read-out and setting: next, `C[C@H](c1ccc(C#N)cc1)N1CCN(c2ccc3nnc(C(F)F)n3n2)CC1` [Example 858, 4-[(1R)-1-[4-[3-(difluoromethyl)-[1,2,4]triazolo[3,4-f]pyridazin-6-yl]piperazin-1-yl]ethyl]benzonitrile]: > 33 µM; `CS(=O)(=O)c1cc(F)cc(CN2CCN(c3ccc4nnc(C(F)F)n4n3)CC2)c1` [Example 859, 3-(difluoromethyl)-6-[4-[3-fluoro-5-(methylsulfonyl)benzyl]piperazin-1-yl][1,2,4]triazolo[4,3-b]pyridazine]: > 33 µM; `Cn1nccc1CCOc1ccc(C2(O)CCN(c3ccc4nnc(C(F)(F)F)n4n3)CC2)cc1` [Example 860, 4-[4-[2-(1-methyl-1H-pyrazol-5-yl)ethoxy]phenyl]-1-[3-(trifluoromethyl)[1,2,4]triazolo[4,3-b]pyridazin-6-yl]piperidin-4-ol]: 0.8 µM.

Another test has as its target T2, isolated rat AR-LBD (Rattus norvegicus, UniProt P15207).
T2 construct: purchased Invitrogen PV4293
T2 sequence (P15207 651-882 limits assumed): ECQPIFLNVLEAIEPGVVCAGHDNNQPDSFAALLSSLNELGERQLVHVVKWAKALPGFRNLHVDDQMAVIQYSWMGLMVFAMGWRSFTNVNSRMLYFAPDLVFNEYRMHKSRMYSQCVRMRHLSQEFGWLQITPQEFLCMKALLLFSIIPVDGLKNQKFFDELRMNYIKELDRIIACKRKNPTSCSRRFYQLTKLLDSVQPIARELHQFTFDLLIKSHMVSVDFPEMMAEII
As to the kind of experiment: Androgen Receptor Ligand Binding Domain competitive binding assay, Fluorescence Polarisation (PolarScreen). The note with it: 50% reduction in tracer compound binding to AR-LBD; read-out: Androgen Receptor FP Ligand-Binding Assay IC50/μM. On the procedure: b) Androgen Receptor—Ligand Binding Domain Competitive Binding Assay
The ability of compounds to bind to isolated Androgen Receptor Ligand binding domain (AR-LBD) was assessed in competition assays using either a Fluorescence Polarisation (FP) or a LanthaScreen™ Time-Resolved Fluorescence Resonance Energy Transfer (TR-FRET) detection end-point.
For the FP test, an assay test kit was purchased from Invitrogen and used to measure compound binding to the isolated rat AR-LBD which shares 100% sequence identity to the human AR-LBD. The Invitrogen PolarScreen™ Androgen Receptor Competitor Assay Red (Product Code No. PV4293), is a fluorescence polarisation (FP)-based competition assay which measures if test compound can displace a fluorescently-labelled tracer compound. If the test compound binds to the AR-LBD it will prevent the formation of the receptor/tracer complex, which will result in a low polarisation value. […] The assay was performed as essentially described in the Invitrogen method with the exception that the final assay volume was 12 μl and this required an appropriate low volume black 384 well microtitre plate. Compounds were dosed directly from a compound source microplate containing serially diluted compound (4 wells containing 10 mM, […], 1 μM and 10 nM final compound respectively) to an assay microplate using the Labcyte Echo 550. The Echo 550 is a liquid handler that uses acoustic technology to perform direct microplate-to-microplate transfers of DMSO compound solutions and the system can be programmed to transfer multiple small nL volumes of compound from the different source plate wells to give the desired serial dilution of compound in the assay which is then back-filled to normalise the DMSO concentration across the dilution range. FP dose response data obtained with each compound was exported into a suitable software package (such as Origin) to perform curve fitting analysis. Competitive AR binding was expressed as an IC50 value. This was determined by calculation of the concentration of compound that was required to give a 50% reduction in tracer compound binding to AR-LBD.
For `FC(F)(F)Cc1nnc2ccc(N3CCN(C(c4ccccc4)c4ccccc4)CC3)nn12` [Example 4, 6-(4-benzhydrylpiperazin-1-yl)-3-(2,2,2-trifluoroethyl)-[1,2,4]triazolo[4,3-b]pyridazine], the IC50 came to 20.2 µM. The same measure, in the same setting: under `FC(F)(F)c1nnc2ccc(N3CC4CC3CN4Cc3ccccc3)nn12` (stereo not shown) [Example 41, 6-(5-benzyl-2,5-diazabicyclo[2.2.1]heptan-2-yl)-3-(trifluoromethyl)-[1,2,4]triazolo[4,3-b]pyridazine] stands 19.6 µM; under `CS(=O)(=O)c1ccc(CN2CCCN(c3ccc4nnc(C(F)(F)F)n4n3)CC2)cc1` [Example 166, 6-[4-[(4-methylsulfonylphenyl)methyl]-1,4-diazepan-1-yl]-3-(trifluoromethyl)-[1,2,4]triazolo[4,3-b]pyridazine], 6.09 µM; under `FC(F)(F)c1ccccc1CN1CCCN(c2ccc3nnc(C(F)(F)F)n3n2)CC1` [Example 174, 3-(trifluoromethyl)-6-[4-[[2-(trifluoromethyl)phenyl]methyl]-1,4-diazepan-1-yl]-[1,2,4]triazolo[4,3-b]pyridazine], 16.3 µM. On the same count and under the same terms, under `Cc1ccccc1CN1CCCN(c2ccc3nnc(C(F)(F)F)n3n2)CC1` [Example 183, 6-[4-[(2-methylphenyl)methyl]-1,4-diazepan-1-yl]-3-(trifluoromethyl)-[1,2,4]triazolo[4,3-b]pyridazine] stands 14.4 µM.
